Where a SMILES comes first, the peptide text is derived from it. [ ]: non-standard residue; d: D form. pGlu = O=C1CC[C@@H](C(=O)O)N1; Thz = O=C(O)[C@@H]1CSCN1
O=C1CC[C@@H](C(=O)N2CSC[C@H]2C(=O)O)N1 ([pGlu]-[Thz]-OH)
solubility (mole fraction)
Conditions | 278.15 K | 283.15 K | 288.15 K | 293.15 K | 298.15 K | 303.15 K | 308.15 K | 313.15 K | 318.15 K | 323.15 K
in DMF | 0.00535 | 0.00604 | 0.00734 | 0.00953 | 0.0123 | 0.0151 | 0.0182 | 0.0214 | 0.0253 | 0.0291
in acetone | 3.1e-05 | 5e-05 | 8.5e-05 | 0.000121 | 0.000176 | 0.000249 | 0.000354 | 0.000522 | 0.000693 | 0.000925
in acetonitrile | 0.000297 | 0.000336 | 0.000426 | 0.00052 | 0.000691 | 0.000855 | 0.00107 | 0.00132 | 0.00159 | 0.00195
in benzyl alcohol | 0.00226 | 0.00262 | 0.00307 | 0.00374 | 0.00452 | 0.00553 | 0.00661 | 0.00806 | 0.0101 | 0.0128
in ethanol | 8.3e-05 | 0.000128 | 0.000198 | 0.000303 | 0.00045 | 0.000679 | 0.000986 | 0.00144 | 0.00208 | 0.00292
in isopropanol | 9.1e-05 | 0.000138 | 0.000209 | 0.000307 | 0.000454 | 0.000663 | 0.000945 | 0.00136 | 0.0019 | 0.00265
in methanol | 0.00121 | 0.00137 | 0.00157 | 0.00184 | 0.00216 | 0.00257 | 0.00305 | 0.00365 | 0.00437 | 0.00528
in n-butanol | 0.000227 | 0.000282 | 0.000354 | 0.000439 | 0.000566 | 0.00072 | 0.000908 | 0.0012 | 0.00151 | 0.00197
in water | 0.00163 | 0.00181 | 0.00205 | 0.00234 | 0.0027 | 0.00313 | 0.00368 | 0.00434 | 0.00509 | 0.00604
